Laboratory results taken from US20240059703A1 (AMGEN INC., priority 2021, published 2024).

Columns and labels:
[1] = test system: MIA PaCa-2 (human pancreatic carcinoma) cells; experiment: Cell Viability Assay (CellTiter-Glo), MIA PaCa-2; assay type: cell-based; details: Homo sapiens, MIA PaCa-2, 72 h
Description: Serially-diluted compound or DMSO was added to the cells, and plates were incubated at 37° C., 5% CO2 for 72 h. Cell viability was measured using a CellTiter-Glo® Luminescent Cell Viability Assay kit (Promega) according to the manufacturer's protocol. The luminescence signal of treated samples was normalized to DMSO control, and data were analyzed using a 4-parameter logistic model to calculate IC50 values.

[2] = test system: A549 (human lung carcinoma) cells; experiment: Cell Viability Assay (CellTiter-Glo), A549; assay type: cell-based; details: Homo sapiens, A549, 72 h
Summary of the method: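 RPMI 1640/10% FBS; seed 1.67E+04 cells/mL, o/n 37° C., 5% CO2; serial-dilution cmpd 72 h; CellTiter-Glo luminescence vs DMSO; 4-parameter logistic fit → IC50.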

KRAS G12C = KRAS G12C (Homo sapiens (Human), UniProt P01116, C118A/G12C); experiment: 2 h coupled exchange assay; assay type: biochemical; details: Avg 2 h Coupled exchange IC50, 2 h compound pre-incubation
Sequence of KRAS G12C (P01116 other isoform, or with tags, fused parts or gaps G12C/C118A): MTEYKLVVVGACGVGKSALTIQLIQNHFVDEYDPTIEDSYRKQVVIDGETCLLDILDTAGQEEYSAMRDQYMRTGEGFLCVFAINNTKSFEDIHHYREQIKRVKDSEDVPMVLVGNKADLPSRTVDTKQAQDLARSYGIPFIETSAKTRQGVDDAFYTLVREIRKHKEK
Description: The term “2 h coupled exchange assay” or “20 h coupled exchange assay” as used herein refers to the assay described in the Section entitled “BIOLOGICAL EVALUATION.”

SMILES	IC50 [1]	IC50 [2]	IC50 (KRAS G12C)
C=CC(=O)N1CC2(CCN(c3nc4c(c(-c5cccc6cc(O)ccc56)c3C)COC(C)(C)C4)C2)C1 [Example 14-43, 1-(6-(4-(6-hydroxy-1-naphthalenyl)-3,7,7-trimethyl-7,8-dihydro-5H-pyrano[4,3-b]pyridin-2-yl)-2,6-diazaspiro[3.4]octan-2-yl)-2-propen-1-one]	136 nM	> 5000 nM	110 nM
C=CC(=O)N1CC2(CCN(c3nc4cc(-c5c(C)nn(C)c5C)ccc4c(-c4ccccc4Cl)c3C#N)C2)C1 [Example 14-46, 4-(2-chlorophenyl)-2-(2-(2-propenoyl)-2,6-diazaspiro[3.4]octan-6-yl)-7-(1,3,5-trimethyl-1H-pyrazol-4-yl)-3-quinolinecarbonitrile]	459 nM	2380 nM	113 nM
C=CC(=O)N1CC2(CCN(c3nc4c(OC)cccc4c(-c4c(C)ccc5[nH]ncc45)c3C#N)C2)C1 [Example 14-47, 8-methoxy-4-(5-methyl-1H-indazol-4-yl)-2-(2-(2-propenoyl)-2,6-diazaspiro[3.4]octan-6-yl)-3-quinolinecarbonitrile]	> 5000 nM	> 5000 nM	482 nM
C=CC(=O)N1CC2(CCN(c3nc4c(c(-c5c(C)ccc6cn[nH]c56)c3C#N)C[C@H]3C[C@@H]4C3(C)C)C2)C1 [Example 14-48, (1R,9R)-10,10-dimethyl-6-(6-methyl-1H-indazol-7-yl)-4-(2-(2-propenoyl)-2,6-diazaspiro[3.4]octan-6-yl)-3-azatricyclo[7.1.1.0^2,7]undeca-2,4,6-triene-5-carbonitrile]	53 nM	> 5000 nM	61 nM
C=CC(=O)N1CC2(CCN(c3nc4c(c(-c5cc(O)ccc5C)c3F)C[C@H]3C[C@@H]4C3(C)C)C2)C1 [Example 14-50, 1-(6-((1R,9R)-5-fluoro-6-(5-hydroxy-2-methylphenyl)-10,10-dimethyl-3-azatricyclo[7.1.1.0^2,7]undeca-2,4,6-trien-4-yl)-2,6-diazaspiro[3.4]octan-2-yl)-2-propen-1-one]	1610 nM	> 5000 nM	65 nM
C=CC(=O)N1CC2(CCN(c3nc4c(c(-c5ccc(F)c6sc(N)nc56)c3C#N)COC(C)(C)C4)C2)C1 [Example 14-56, 4-(2-amino-7-fluoro-1,3-benzothiazol-4-yl)-7,7-dimethyl-2-(2-(2-propenoyl)-2,6-diazaspiro[3.4]octan-6-yl)-7,8-dihydro-5H-pyrano[4,3-b]pyridine-3-carbonitrile]	135 nM	> 5000 nM	93 nM
C=CC(=O)N1CC2(CCN(c3nc4c(c(-c5cc(O)cc6ccccc56)c3F)COC(C)(C)C4)C2)C1 [Example 14-68, 1-(6-(3-fluoro-4-(3-hydroxy-1-naphthalenyl)-7,7-dimethyl-7,8-dihydro-5H-pyrano[4,3-b]pyridin-2-yl)-2,6-diazaspiro[3.4]octan-2-yl)-2-propen-1-one]	91 nM	> 5000 nM	50 nM
C=CC(=O)N1CC2(CCN(c3nc4c(c(-c5c(C)ccc6[nH]ncc56)c3F)C[C@H]3C[C@@H]4C3(C)C)C2)C1 [Example 14-72, 1-(6-((1R,9R)-5-fluoro-10,10-dimethyl-6-(5-methyl-1H-indazol-4-yl)-3-azatricyclo[7.1.1.0^2,7]undeca-2,4,6-trien-4-yl)-2,6-diazaspiro[3.4]octan-2-yl)-2-propen-1-one]	24 nM	> 5000 nM	30 nM
C=CC(=O)N1CC2(CCN(c3nc4c(c(-c5c(C)ccc6cn[nH]c56)c3C#N)COC(C)(C)C4)C2)C1 [Example 14-80, 7,7-dimethyl-4-(6-methyl-1H-indazol-7-yl)-2-(2-(2-propenoyl)-2,6-diazaspiro[3.4]octan-6-yl)-7,8-dihydro-5H-pyrano[4,3-b]pyridine-3-carbonitrile]	1190 nM	> 5000 nM	89 nM
C=CC(=O)N1CC2(CCN(c3nc4c(c(-c5cc(O)c(F)cc5Cl)c3C#N)C[C@H]3C[C@@H]4C3(C)C)C2)C1 [Example 14-84, (1R,9R)-6-(2-chloro-4-fluoro-5-hydroxyphenyl)-10,10-dimethyl-4-(2-(2-propenoyl)-2,6-diazaspiro[3.4]octan-6-yl)-3-azatricyclo[7.1.1.0^2,7]undeca-2,4,6-triene-5-carbonitrile]	2150 nM	> 5000 nM	144 nM
C=CC(=O)N1CC2(CCN(c3nc4c(c(-c5cc(O)ccc5C(F)(F)F)c3C#N)COC(C)(C)C4)C2)C1 [Example 14-86, 4-(5-hydroxy-2-(trifluoromethyl)phenyl)-7,7-dimethyl-2-(2-(2-propenoyl)-2,6-diazaspiro[3.4]octan-6-yl)-7,8-dihydro-5H-pyrano[4,3-b]pyridine-3-carbonitrile]	418 nM	> 5000 nM	108 nM
C=CC(=O)N1CC2(CCN(c3nc4c(c(-c5c(C)c(Cl)cc6cnn(C)c56)c3C)COC(C)(C)C4)C2)C1 [Example 14-87, 1-(6-(4-(5-chloro-1,6-dimethyl-1H-indazol-7-yl)-3,7,7-trimethyl-7,8-dihydro-5H-pyrano[4,3-b]pyridin-2-yl)-2,6-diazaspiro[3.4]octan-2-yl)-2-propen-1-one]	68 nM	> 5000 nM	39 nM
C=CC(=O)N1CC2(CCN(c3nc4c(c(-c5c(C)c(Cl)cc6cn[nH]c56)c3C#N)COC(C)(C)C4)C2)C1 [Example 14-91, 4-(5-chloro-6-methyl-1H-indazol-7-yl)-7,7-dimethyl-2-(2-(2-propenoyl)-2,6-diazaspiro[3.4]octan-6-yl)-7,8-dihydro-5H-pyrano[4,3-b]pyridine-3-carbonitrile]	20 nM	> 5000 nM	16 nM
C=CC(=O)N1CC2(CCN(c3nc4c(c(-c5c(C)c(Cl)cc6cnn(C)c56)c3C#N)COC(C)(C)C4)C2)C1 [Example 14-92, 4-(5-chloro-1,6-dimethyl-1H-indazol-7-yl)-7,7-dimethyl-2-(2-(2-propenoyl)-2,6-diazaspiro[3.4]octan-6-yl)-7,8-dihydro-5H-pyrano[4,3-b]pyridine-3-carbonitrile]	9 nM	> 5000 nM	28 nM
C=CC(=O)N1CC2(CCN(c3nc4c(c(-c5ccc(F)cc5F)c3C)CC[C@@H](c3c(C)cnn3C)C4)C2)C1 [Example 14-93, 1-(6-((7R)-4-(2,4-difluorophenyl)-7-(1,4-dimethyl-1H-pyrazol-5-yl)-3-methyl-5,6,7,8-tetrahydro-2-quinolinyl)-2,6-diazaspiro[3.4]octan-2-yl)-2-propen-1-one]	352 nM	12400 nM	134 nM
C=CC(=O)N1CC2(CCN(c3nc4c(c(-c5cccc(F)c5O)c3C)CC[C@@H](c3c(C)cnn3C)C4)C2)C1 [Example 14-94, 1-(6-((7R)-7-(1,4-dimethyl-1H-pyrazol-5-yl)-4-(3-fluoro-2-hydroxyphenyl)-3-methyl-5,6,7,8-tetrahydro-2-quinolinyl)-2,6-diazaspiro[3.4]octan-2-yl)-2-propen-1-one]	118 nM	14400 nM	228 nM
C=CC(=O)N1CC2(CCN(c3nc4c(c(-c5cccc(F)c5O)c3C)CC[C@H](c3c(C)cnn3C)C4)C2)C1 [Example 14-95, 1-(6-((7S)-7-(1,4-dimethyl-1H-pyrazol-5-yl)-4-(3-fluoro-2-hydroxyphenyl)-3-methyl-5,6,7,8-tetrahydro-2-quinolinyl)-2,6-diazaspiro[3,4]octan-2-yl)-2-propen-1-one]	3350 nM	15400 nM	687 nM
C=CC(=O)N1CC2(CCN(c3nc4c(c(-c5ccccc5Cl)c3C)CCC(c3c(C)cnn3C)C4)C2)C1 [Example 14-96, 1-(6-((7R)-4-(2-chlorophenyl)-7-(1,4-dimethyl-1H-pyrazol-5-yl)-3-methyl-5,6,7,8-tetrahydro-2-quinolinyl)-2,6-diazaspiro[3.4]octan-2-yl)-2-propen-1-one|1-(6-((7S)-4-(2-chlorophenyl)-7-(1,4-dimethyl-1H-pyrazol-5-yl)-3-methyl-5,6,7,8-tetrahydro-2-quinolinyl)-2,6-diazaspiro[3.4]octan-2-yl)-2-propen-1-one]	852 nM	13400 nM	546 nM
C=CC(=O)N1CC2(CCN(c3cc4c(c(-c5c(C)ccc6[nH]ncc56)c3C)COCC4)C2)C1 [Example 14-104, 1-(6-(7-methyl-8-(5-methyl-1H-indazol-4-yl)-3,4-dihydro-1H-2-benzopyran-6-yl)-2,6-diazaspiro[3.4]octan-2-yl)-2-propen-1-one]	210 nM	> 5000 nM	242 nM
C=CC(=O)N1CC2(CCN(c3nc4cc(-c5ccnn5C)ccc4c(-c4c(C)ccc5[nH]ncc45)c3C#N)C2)C1 [Example 15-1, 4-(5-methyl-1H-indazol-4-yl)-7-(1-methyl-1H-pyrazol-5-yl)-2-(2-(2-propenoyl)-2,6-diazaspiro[3.4]octan-6-yl)-3-quinolinecarbonitrile]	144 nM	3310 nM	31 nM
C=CC(=O)N1CC2(CCN(c3nc4cc(-c5scnc5C)ccc4c(-c4c(C)ccc5[nH]ncc45)c3C)C2)C1 [Example 15-3, 1-(6-(3-methyl-4-(5-methyl-1H-indazol-4-yl)-7-(4-methyl-1,3-thiazol-5-yl)-2-quinolinyl)-2,6-diazaspiro[3.4]octan-2-yl)-2-propen-1-one]	1120 nM	> 5000 nM	62 nM
